Results as given in patent publication US8853203B2, “Diazepinone derivatives” (Novartis AG, priority 2012, dated 2014).
Blank lines part the entries; values can stand above or below the molecule they belong to.

Experiments:
[1] = biological target: human mGluR5a receptors (Homo sapiens (Human), UniProt P41594); test: inhibition of glutamate-induced elevation of intracellular calcium in L(tk-) cells expressing human mGluR5a; assay type: cell-based; conditions: for inhibition at 10 µM: LTK, read-out: mGluR5 % inhibition at 10 μM; for IC50: glutamate-induced intracellular calcium elevation, L(tk-) cells expressing human mGluR5a, read-out: mGluR5 IC50
Description: Activity of compounds of the present invention was examined by determination to what extent the glutamate-induced elevation of the intracellular calcium concentration in L(tk-) cells expressing human mGluR5a receptors (see L. P. Daggett et al., Neuropharm. Vol. 34, pages 871-886, 1995) is inhibited by utilizing methods as described e.g. by L. P. Daggett et al., Neuropharm. Vol. 34, pages 871-886 (1995) and P. J. Flor et al., J. Neurochem. Vol. 67, pages 58-63 (1996).

[2] = biological target: human mGluR1 (Homo sapiens (Human), UniProt Q13255); test: mGluR1 antagonism, L-glutamate induced intracellular calcium increase (FLIPR) in CHO cells stably expressing human mGluR1; assay type: cell-based; conditions: for inhibition at 10 µM: CHO; for IC50: L-glutamate induced intracellular calcium, CHO cells expressing human mGluR1, FLIPR
Description: Activity of compounds of the present invention with respect to mGluR1 antagonism was examined by an assay based on measurements of L-glutamate induced intracellular calcium increases using a 96 well plate-based Fluorometric Imaging Plate Reader (FLIPR), and CHO cells stably expressing human mGluR1. L-glutamate induced robust calcium responses via human mGluR1 in a concentration-dependent manner and in the low micromolar range. The table below represents IC50 values of the inhibition of the glutamate-induced elevation of the intracellular calcium concentration.

Chain of human mGluR1 (Q13255 19-1194): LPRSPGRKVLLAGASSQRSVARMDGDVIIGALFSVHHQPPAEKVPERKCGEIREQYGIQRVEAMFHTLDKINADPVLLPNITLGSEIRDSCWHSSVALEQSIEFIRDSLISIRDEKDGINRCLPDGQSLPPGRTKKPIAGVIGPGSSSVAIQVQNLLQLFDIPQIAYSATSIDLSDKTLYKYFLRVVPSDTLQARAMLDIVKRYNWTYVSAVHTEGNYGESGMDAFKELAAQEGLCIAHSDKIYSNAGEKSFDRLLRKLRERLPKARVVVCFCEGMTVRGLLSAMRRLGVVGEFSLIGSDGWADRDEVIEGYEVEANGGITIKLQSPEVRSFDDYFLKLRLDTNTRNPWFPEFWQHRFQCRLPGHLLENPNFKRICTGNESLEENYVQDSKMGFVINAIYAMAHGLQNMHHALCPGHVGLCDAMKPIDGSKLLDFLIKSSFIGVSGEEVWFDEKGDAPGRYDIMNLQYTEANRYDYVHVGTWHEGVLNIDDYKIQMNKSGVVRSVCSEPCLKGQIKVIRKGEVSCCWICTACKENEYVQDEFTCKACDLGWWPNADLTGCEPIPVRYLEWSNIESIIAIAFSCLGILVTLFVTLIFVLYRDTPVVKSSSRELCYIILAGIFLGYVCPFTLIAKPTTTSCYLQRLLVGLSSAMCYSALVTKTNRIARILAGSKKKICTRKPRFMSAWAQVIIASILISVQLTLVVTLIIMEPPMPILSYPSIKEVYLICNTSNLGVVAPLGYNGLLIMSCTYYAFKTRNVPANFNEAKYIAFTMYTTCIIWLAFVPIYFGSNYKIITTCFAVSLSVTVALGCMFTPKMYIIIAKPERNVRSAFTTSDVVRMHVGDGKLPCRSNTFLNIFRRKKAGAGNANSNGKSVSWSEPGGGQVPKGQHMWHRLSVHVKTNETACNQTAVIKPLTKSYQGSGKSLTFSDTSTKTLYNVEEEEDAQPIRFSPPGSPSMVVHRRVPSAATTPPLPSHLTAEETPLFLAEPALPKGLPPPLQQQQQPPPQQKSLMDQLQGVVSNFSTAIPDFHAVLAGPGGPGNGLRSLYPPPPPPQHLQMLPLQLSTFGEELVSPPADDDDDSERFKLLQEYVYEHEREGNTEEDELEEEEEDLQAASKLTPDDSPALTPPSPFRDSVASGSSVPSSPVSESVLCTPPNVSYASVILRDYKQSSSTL
Chain of human mGluR5a receptors (P41594 other isoform, or with tags, fused parts or gaps): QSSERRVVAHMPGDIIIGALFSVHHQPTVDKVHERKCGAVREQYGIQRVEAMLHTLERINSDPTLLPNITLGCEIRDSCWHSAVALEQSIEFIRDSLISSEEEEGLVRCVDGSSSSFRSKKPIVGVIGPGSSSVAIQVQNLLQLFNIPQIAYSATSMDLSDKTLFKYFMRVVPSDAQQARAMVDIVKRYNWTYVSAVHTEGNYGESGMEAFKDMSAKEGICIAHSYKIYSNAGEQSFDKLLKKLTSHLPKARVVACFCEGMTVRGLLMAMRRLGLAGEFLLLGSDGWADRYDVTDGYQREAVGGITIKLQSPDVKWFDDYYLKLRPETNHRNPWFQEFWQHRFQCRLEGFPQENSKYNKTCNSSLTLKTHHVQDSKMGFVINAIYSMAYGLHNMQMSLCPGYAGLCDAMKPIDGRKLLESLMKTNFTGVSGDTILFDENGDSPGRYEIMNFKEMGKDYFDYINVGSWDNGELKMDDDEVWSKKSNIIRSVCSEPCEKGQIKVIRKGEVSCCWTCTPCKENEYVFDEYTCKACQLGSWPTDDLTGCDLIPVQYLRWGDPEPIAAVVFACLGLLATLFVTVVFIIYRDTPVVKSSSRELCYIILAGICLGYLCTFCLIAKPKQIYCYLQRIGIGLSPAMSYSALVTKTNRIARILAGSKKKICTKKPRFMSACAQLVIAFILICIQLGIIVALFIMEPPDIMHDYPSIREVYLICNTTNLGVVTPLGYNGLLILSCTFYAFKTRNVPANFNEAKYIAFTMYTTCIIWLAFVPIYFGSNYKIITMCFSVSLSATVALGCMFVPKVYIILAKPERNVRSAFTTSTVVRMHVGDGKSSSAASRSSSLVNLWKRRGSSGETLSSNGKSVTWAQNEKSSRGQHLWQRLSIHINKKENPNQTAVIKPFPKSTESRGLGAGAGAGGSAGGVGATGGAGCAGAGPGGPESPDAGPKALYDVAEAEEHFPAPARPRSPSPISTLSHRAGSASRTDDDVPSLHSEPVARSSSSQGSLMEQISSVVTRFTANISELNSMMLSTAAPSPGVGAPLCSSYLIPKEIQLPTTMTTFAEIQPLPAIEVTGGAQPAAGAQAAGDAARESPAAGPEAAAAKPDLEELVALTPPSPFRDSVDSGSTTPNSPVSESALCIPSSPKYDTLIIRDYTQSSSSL

IC50 [1]: 210 nM
IC50 [2]: 1.5 µM
SMILES: O=C1CN=C(n2cnc(CO)c2)C=C2c3cccc(I)c3CCN12 [Example 65, 2-(4-(hydroxymethyl)-1H-imidazol-1-yl)-9-iodo-7,8-dihydro-[1,4]diazepino[7,1-a]isoquinolin-5(4H)-one]

IC50 [1]: 780 nM
IC50 [2]: > 10 µM
SMILES: COC(=O)c1cn(C2=NCC(=O)N3CCc4c(I)cccc4C3=C2)cn1 [Example 66, methyl 1-(9-iodo-5-oxo-4,5,7,8-tetrahydro-[1,4]diazepino[7,1-a]isoquinolin-2-yl)-1H-imidazole-4-carboxylate]

IC50 [1]: 715 nM
IC50 [2]: 1.4 µM
SMILES: Cc1cn(C2=NCC(=O)N3CCc4c(I)cccc4C3=C2)c(C)n1 [Example 67, 2-(2,4-dimethyl-1H-imidazol-1-yl)-9-iodo-7,8-dihydro-[1,4]diazepino[7,1-a]isoquinolin-5(4H)-one]

IC50 [1]: 1700 nM
IC50 [2]: > 10 µM
SMILES: CCOC(=O)c1cn(C2=NCC(=O)N3CCc4c(I)cccc4C3=C2)cn1 [Example 68, ethyl 1-(9-iodo-5-oxo-4,5,7,8-tetrahydro-[1,4]diazepino[7,1-a]isoquinolin-2-yl)-1H-imidazole-4-carboxylate]

IC50 [1]: 20 nM
IC50 [2]: > 10 µM
SMILES: O=C1CN=C(n2cnc(C3CCC3)c2)C=C2c3cccc(-n4cccn4)c3CCN12 [Example 69, 2-(4-cyclobutyl-1H-imidazol-1-yl)-9-(1H-pyrazol-1-yl)-7,8-dihydro-[1,4]diazepino[7,1-a]isoquinolin-5(4H)-one]

More lines, now with the values behind:

SMILES: Cc1cc(-c2cccc3c2CCN2C(=O)CN=C(c4ccn(C)n4)C=C32)ccn1 [Example 56, 2-(1-methyl-1H-pyrazol-3-yl)-9-(2-methylpyridin-4-yl)-7,8-dihydro-[1,4]diazepino[7,1-a]isoquinolin-5(4H)-one]
inhibition at 10 µM [1]: 24%
inhibition at 10 µM [2]: 0%

SMILES: COc1cccc(C2=NCC(=O)N3CCc4c(cccc4C4CCCO4)C3=C2)c1 (stereo not shown) [Example 57, 2-(3-methoxyphenyl)-9-(tetrahydrofuran-2-yl)-7,8-dihydro-[1,4]diazepino[7,1-a]isoquinolin-5(4H)-one]
IC50 [1]: 14 nM
IC50 [2]: 4.5 µM

SMILES: COc1cccc2c1CCN1C(=O)CN=C(c3cccc(O)n3)C=C21 [Example 58, 9-methoxy-2-(6-oxo-1,6-dihydropyridin-2-yl)-7,8-dihydro-[1,4]diazepino[7,1-a]isoquinolin-5(4H)-one]
inhibition at 10 µM [1]: 26%
IC50 [2]: 8.9 µM

SMILES: COc1cccc(C2=NCC(=O)N3CCc4c(ccc(OC)c4OC)C3=C2)c1 [Example 59, 9,10-dimethoxy-2-(3-methoxyphenyl)-7,8-dihydro-[1,4]diazepino[7,1-a]isoquinolin-5(4H)-one]
inhibition at 10 µM [1]: 23%
IC50 [2]: 6.5 µM

SMILES: COc1cccc2c1CCN1C(=O)CN=C(c3cc[nH]c(=O)c3)C=C21 [Example 60, 9-methoxy-2-(2-oxo-1,2-dihydropyridin-4-yl)-7,8-dihydro-[1,4]diazepino[7,1-a]isoquinolin-5(4H)-one]
inhibition at 10 µM [1]: 27%
inhibition at 10 µM [2]: 15%

SMILES: COc1cccc2c1CCN1C(=O)CN=C(n3cnc(C(C)C)c3)C=C21 [Example 61, 2-(4-isopropyl-1H-imidazol-1-yl)-9-methoxy-7,8-dihydro-[1,4]diazepino[7,1-a]isoquinolin-5(4H)-one]
IC50 [1]: 345 nM
IC50 [2]: 3.1 µM

SMILES: Cc1cn(C2=NCC(=O)N3CCc4c(Cl)cccc4C3=C2)cn1 [Example 62, 9-chloro-2-(4-methyl-1H-imidazol-1-yl)-7,8-dihydro-[1,4]diazepino[7,1-a]isoquinolin-5(4H)-one]
IC50 [1]: 595 nM
IC50 [2]: 1.6 µM

SMILES: O=C1CN=C(n2cnc(C(F)(F)F)c2)C=C2c3cccc(I)c3CCN12 [Example 63, 9-iodo-2-(4-(trifluoromethyl)-1H-imidazol-1-yl)-7,8-dihydro-[1,4]diazepino[7,1-a]isoquinolin-5(4H)-one]
IC50 [1]: 535 nM
IC50 [2]: 3.2 µM

SMILES: N#Cc1cn(C2=NCC(=O)N3CCc4c(I)cccc4C3=C2)cn1 [Example 64, 1-(9-iodo-5-oxo-4,5,7,8-tetrahydro-[1,4]diazepino[7,1-a]isoquinolin-2-yl)-1H-imidazole-4-carbonitrile]
IC50 [1]: 4300 nM
IC50 [2]: > 10 µM
